Here are results for three compounds from PubChem BioAssay (NCI).

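Assay format: 96-well plates, 48-hour exposure. TGI is the concentration that stops growth completely.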 Some results are limits rather than exact numbers.

Common to all, as to test: NCI-60 cell line screen, 48 h
The test system of assay [1] is SN12C renal.
For assay [2], the system named is LOX IMVI melanoma.
Assay [3] deals with NCI/ADR-RES ovarian.
Assay [4] relates to T-47D breast.
In assay [5] the test system is UO-31 renal.
Assay [6] has as its system K-562 leukemia.
Assay [7] relates to HCT-15 colon.
Assay [8] deals with RPMI-8226 leukemia.
The subject of assay [9] is SK-OV-3 ovarian.
Assay [10] has as its system SK-MEL-2 melanoma.
The subject of assay [11] is NCI-H522 lung.
Assay [12] deals with NCI-H226 lung.
Assay [13] relates to CCRF-CEM leukemia.
The test system of assay [14] is U251 CNS.
The subject of assay [15] is MOLT-4 leukemia.
Assay [16] relates to SF-295 CNS.
Assay [17] concerns HL-60(TB) leukemia.
Assay [18] deals with RXF 393 renal.
The subject of assay [19] is SK-MEL-5 melanoma.

For `COc1ccc(CCN(C)C(=O)CC(C#N)(c2ccccc2)c2ccc(OC)c(OC)c2)cc1OC` (configuration not stated), the TGI in assay [1], in [2], in assay [3], in [4], in [5] and in [6] was over 100 µM each time. The TGI in assay [7], in [8], in [9], in assay [10], in assay [11] and in [12] was over 100 µM in each case. Also, the TGI in assay [13], in assay [14], in assay [15], in assay [16], in assay [17] and in assay [18] was over 100 µM throughout. This compound yielded a TGI in assay [19] of over 100 µM.

On to `COC(=O)N/N=C(\C)C(CN1CCOCC1)C(c1ccccc1)c1cc2ccccc2oc1=O` (configuration not stated), for which the TGI in [1], in assay [2], in [3], in [4], in assay [5] and in assay [6] was over 100 µM throughout. In addition, the TGI was over 100 µM in assay [7]; 53.4 µM in assay [8]; over 100 µM in assay [9]; over 100 µM in assay [10]; over 100 µM in assay [11]; over 100 µM in assay [12]. The TGI in [13] was over 100 µM; in [14] it was over 100 µM; in assay [15] it was over 100 µM; in assay [16], over 100 µM; in assay [17], 85.3 µM; in assay [18], over 100 µM. Also, in assay [19], the TGI was over 100 µM.

Consider `Nc1c(Cl)c([N+](=O)[O-])cc2c1OCCCCO2`, for which the TGI in [1], in assay [2], in [3], in [4], in assay [5] and in assay [6] was over 100 µM in each case. Moreover, the TGI in [7] is over 100 µM; in assay [8], over 100 µM; in assay [9] it was 55.6 µM; in assay [10] it was over 100 µM; in assay [11] it was 5.28 µM; in assay [12] it was over 100 µM. The TGI in [13] was over 100 µM; in [14], 8.48 µM; in assay [15], over 100 µM; in assay [16], over 100 µM; in assay [17], over 100 µM; in assay [18], over 100 µM. In addition, the TGI in [19] is over 100 µM.
